The text below walks through data of US12281122B1, “PI3K inhibitors” (Cogent Biosciences, Inc., priority 2023, dated 2025).

The test system of test [1] is SKBR3 (PI3Kα-Wild Type) cell line. The experiment in a line: HTRF phospho-AKT(S473) cell assay in SKBR3 cells. It counts as cell-based, human. The method, boiled down:
(§1)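 pAKT(S473) in lysates read by HTRF after a 2 h, 37 °C compound exposure (12-point 1:3 series, max 0.5% DMSO). SKBR3 (wild type, top 10 μM) received 70 ng/ml PDGF-BB during the final 15 min; T47D (H1047R, top 5 μM) was unstimulated. IC50 values derived from the dose-response.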
On the technique in general: In TR-FRET formats the signal depends on donor and acceptor labels being close together.

Test [2] has as its system T47D (PI3Kα-H1047R) cell line. The experiment in a line: HTRF phospho-AKT(S473) cell assay in T47D cells. Type of test: cell-based, human. The method, boiled down:
as §1

Setting [3] is: Homo sapiens, SK-BR-3; HTRF phospho-AKT(S473), SKBR3 (PI3Kα-Wild Type) cells, 2 hours compound incubation, PDGF-BB stimulated.
Where [4] appears, read: Homo sapiens; HTRF phospho-AKT(S473), T47D (PI3Kα-H1047R) cells, 2 hours compound incubation.
The mark [5] stands for this setting: Homo sapiens, SK-BR-3; SKBR3 (PI3Kα-Wild Type) cells, HTRF phospho-AKT(S473), 2 hours compound incubation, PDGF-BB stimulated.
[6] abbreviates: Homo sapiens; T47D (PI3Kα-H1047R) cells, HTRF phospho-AKT(S473), 2 hours compound incubation.

One may read the IC50 as the concentration that inhibits the measured activity by half. Read a low IC50 as greater potency in that assay. Regarding `Cc1cc([C@@H](C)Nc2ccc(Cl)nc2C(=O)NS(C)(=O)=O)c2nc(-c3ccc4c(cnn4C)c3)n(C)c(=O)c2c1` [Compound 774, (R)-6-chloro-3-((1-(3,6-dimethyl-2-(1-methyl-1H-indazol-5-yl)-4-oxo-3,4-dihydroquinazolin-8-yl)ethyl)amino)-N-(methylsulfonyl) picolinamide], the IC50 is 500 to 1000 nM in test [1] (setting [3]) and less than 250 nM in test [2] (setting [4]).

On to `Cc1cc([C@@H](C)Nc2ccc(Cl)nc2C(=O)NS(C)(=O)=O)c2nc(N3CCC[C@H](c4cnccn4)C3)n(C)c(=O)c2c1` (relative stereo) [Compound 619, 6-chloro-3-(((R)-1-(3,6-dimethyl-4-oxo-2-((R*)-3-(pyrazin-2-yl)piperidin-1-yl)-3,4-dihydroquinazolin-8-yl)ethyl)amino)-N-(methylsulfonyl) picolinamide], for which the IC50 in test [1] (setting [3]) was not below 5000 nM; in test [2] (setting [4]), less than 250 nM.

Take `CO[C@H]1C[C@H](S(=O)(=O)NC(=O)c2nc(Cl)ccc2N[C@H](C)c2cc(C)cc3c(=O)n(C)c(N4Cc5ccc(F)cc5C4)nc23)C1` [Compound 379, 6-chloro-3-(((R)-1-(2-(5-fluoroisoindolin-2-yl)-3,6-dimethyl-4-oxo-3,4-dihydroquinazolin-8-yl)ethyl)amino)-N-(((1r,3R)-3-methoxycyclobutyl)sulfonyl)picolinamide]: the IC50 in test [1] (setting [5]) is not below 5000 nM; in test [2] (setting [6]), 250 to 500 nM.

In the case of `[2H]C([2H])([2H])n1ncc2cc(-c3nc4c([C@@H](C)Nc5ccc(Cl)nc5C(=O)NS(C)(=O)=O)cc(C)cc4c(=O)n3C)ccc21` [Compound 818, (R)-6-chloro-3-((1-(3,6-dimethyl-2-(1-(methyl-d3)-1H-indazol-5-yl)-4-oxo-3,4-dihydroquinazolin-8-yl)ethyl)amino)-N-(methylsulfonyl) picolinamide], the IC50 in test [1] (setting [3]) is 1000 to 5000 nM; in test [2] (setting [4]), less than 250 nM.

Turning to `Cc1cc([C@@H](C)Nc2ccc(Cl)nc2C(=O)NS(C)(=O)=O)c2nc(N3CCC(n4ncc(F)c4C)CC3)n(C)c(=O)c2c1` [Compound 712, (R)-6-chloro-3-((1-(2-(4-(4-fluoro-5-methyl-1H-pyrazol-1-yl)piperidin-1-yl)-3,6-dimethyl-4-oxo-3,4-dihydroquinazolin-8-yl)ethyl)amino)-N-(methylsulfonyl) picolinamide], the IC50 in test [1] (setting [3]) was 1000 to 5000 nM; in test [2] (setting [4]), less than 250 nM.

`Cc1cc([C@@H](C)Nc2ccc(Cl)nc2C(=O)NS(C)(=O)=O)c2nc(N(C)CC3(C(F)(F)F)CC3)n(C)c(=O)c2c1` [Compound 163, (R)-6-chloro-3-((1-(3,6-dimethyl-2-(methyl((1-(trifluoromethyl)cyclopropyl)methyl)amino)-4-oxo-3,4-dihydroquinazolin-8-yl)ethyl)amino)-N-(methylsulfonyl) picolinamide]: the IC50 in test [1] (setting [5]) is 1000 to 5000 nM; in test [2] (setting [6]), 250 to 500 nM.

With `Cc1cc([C@@H](C)Nc2ccc(Cl)nc2C(=O)NS(C)(=O)=O)c2nc(N3CCC(n4cc(C)cn4)CC3)n(C)c(=O)c2c1` [Compound 197, (R)-6-chloro-3-((1-(3,6-dimethyl-2-(4-(4-methyl-1H-pyrazol-1-yl)piperidin-1-yl)-4-oxo-3,4-dihydroquinazolin-8-yl)ethyl)amino)-N-(methylsulfonyl) picolinamide], the IC50 was 1000 to 5000 nM in test [1] (setting [5]) and less than 250 nM in test [2] (setting [6]).

For the compound `Cc1cc([C@@H](C)Nc2ccc(Cl)nc2C(=O)NS(C)(=O)=O)c2nc(N3Cc4cn(-c5cnn(C)c5)nc4C3)n(C)c(=O)c2c1` [Compound 245, (R)-6-chloro-3-((1-(3,6-dimethyl-2-(2-(1-methyl-1H-pyrazol-4-yl)-2,6-dihydropyrrolo[3,4-c]pyrazol-5(4H)-yl)-4-oxo-3,4-dihydroquinazolin-8-yl)ethyl)amino)-N-(methylsulfonyl) picolinamide], the IC50 was 1000 to 5000 nM in test [1] (setting [5]) and less than 250 nM in test [2] (setting [6]).

As for `Cc1cc([C@@H](C)Nc2ccc(Cl)nc2C(=O)NS(C)(=O)=O)c2nc(N3C[C@@H]4[C@H](C3)[C@H]4c3cnc(C)c(F)c3)n(C)c(=O)c2c1` [Compound 423, 6-chloro-3-(((R)-1-(2-((1R,5S,6S)-6-(5-fluoro-6-methylpyridin-3-yl)-3-azabicyclo[3.1.0]hexan-3-yl)-3,6-dimethyl-4-oxo-3,4-dihydroquinazolin-8-yl)ethyl)amino)-N-(methylsulfonyl) picolinamide], the IC50 in test [1] (setting [5]) was not below 5000 nM; in test [2] (setting [6]), 250 to 500 nM.

For the compound `Cc1cc([C@@H](C)Nc2ccc(Cl)nc2C(=O)NS(C)(=O)=O)c2nc(N3C[C@@H]4[C@H](C3)[C@H]4n3cc(Cl)cn3)n(C)c(=O)c2c1` [Compound 583, 6-chloro-3-(((R)-1-(2-((1R,5S,6S)-6-(4-chloro-1H-pyrazol-1-yl)-3-azabicyclo[3.1.0]hexan-3-yl)-3,6-dimethyl-4-oxo-3,4-dihydroquinazolin-8-yl)ethyl)amino)-N-(methylsulfonyl) picolinamide], the IC50 in test [1] (setting [3]) was not below 5000 nM; in test [2] (setting [4]) it was 250 to 500 nM.

Turning to `Cc1cnc([C@H]2CCCN(c3nc4c([C@@H](C)Nc5ccc(Cl)nc5C(=O)NS(C)(=O)=O)cc(C)cc4c(=O)n3C)C2)nc1` (relative stereo) [Compound 621, 6-chloro-3-(((R)-1-(3,6-dimethyl-2-((R*)-3-(5-methylpyrimidin-2-yl)piperidin-1-yl)-4-oxo-3,4-dihydroquinazolin-8-yl)ethyl)amino)-N-(methylsulfonyl) picolinamide], the IC50 is not below 5000 nM in test [1] (setting [3]) and 500 to 1000 nM in test [2] (setting [4]).

In the case of `Cc1cc([C@@H](C)Nc2ccc(Cl)nc2C(=O)NS(C)(=O)=O)c2nc(N3CCC4(CCN(c5ccn(C)n5)CC4)CC3)n(C)c(=O)c2c1` [Compound 361, (R)-6-chloro-3-((1-(3,6-dimethyl-2-(9-(1-methyl-1H-pyrazol-3-yl)-3,9-diazaspiro[5.5]undecan-3-yl)-4-oxo-3,4-dihydroquinazolin-8-yl)ethyl)amino)-N-(methylsulfonyl) picolinamide], the IC50 in test [1] (setting [5]) is not below 5000 nM; in test [2] (setting [6]), 250 to 500 nM.

As to `Cc1cc([C@@H](C)Nc2ccc(Cl)nc2C(=O)NS(C)(=O)=O)c2nc(N3Cc4cnn([C@@H](C)C(F)(F)F)c4C3)n(C)c(=O)c2c1` (relative stereo) [Compound 284, 6-chloro-3-(((R)-1-(3,6-dimethyl-4-oxo-2-(1-((R*)-1,1,1-trifluoropropan-2-yl)-4,6-dihydropyrrolo[3,4-c]pyrazol-5(1H)-yl)-3,4-dihydroquinazolin-8-yl)ethyl)amino)-N-(methylsulfonyl) picolinamide], the IC50 in test [1] (setting [5]) is 1000 to 5000 nM; in test [2] (setting [6]), less than 250 nM.

Turning to `Cc1cc([C@@H](C)Nc2ccc(Cl)nc2C(=O)NS(C)(=O)=O)c2nc(N3C[C@@H]4[C@H](C3)[C@H]4c3ccnc(C)c3)n(C)c(=O)c2c1` [Compound 384, 6-chloro-3-(((R)-1-(3,6-dimethyl-2-((1R,5S,6S)-6-(2-methylpyridin-4-yl)-3-azabicyclo[3.1.0]hexan-3-yl)-4-oxo-3,4-dihydroquinazolin-8-yl)ethyl)amino)-N-(methylsulfonyl) picolinamide], the IC50 in test [1] (setting [5]) is 1000 to 5000 nM; in test [2] (setting [6]) it was less than 250 nM.

On to `Cc1cc([C@@H](C)Nc2ccc(Cl)nc2C(=O)NS(C)(=O)=O)c2nc(N3CCC[C@H](c4ccc(N)cn4)C3)n(C)c(=O)c2c1` (relative stereo) [Compound 307, 3-(((R)-1-(2-((R*)-3-(5-aminopyridin-2-yl)piperidin-1-yl)-3,6-dimethyl-4-oxo-3,4-dihydroquinazolin-8-yl)ethyl)amino)-6-chloro-N-(methylsulfonyl) picolinamide], for which the IC50 in test [1] (setting [5]) was not below 5000 nM; in test [2] (setting [6]), less than 250 nM.

`Cc1cc([C@@H](C)Nc2ccc(Cl)nc2C(=O)NS(C)(=O)=O)c2nc(N3Cc4cn([C@H](C)C(F)(F)F)nc4C3)n(C)c(=O)c2c1` (relative stereo) [Compound 224, 6-chloro-3-(((R)-1-(3,6-dimethyl-4-oxo-2-(2-((R*)-1,1,1-trifluoropropan-2-yl)-2,6-dihydropyrrolo[3,4-c]pyrazol-5(4H)-yl)-3,4-dihydroquinazolin-8-yl)ethyl)amino)-N-(methylsulfonyl) picolinamide]: the results for the IC50 in test [1] (setting [5]) and in test [2] (setting [6]) were 1000 to 5000 nM and less than 250 nM, respectively.

For `Cc1cnc([C@H]2[C@@H]3CN(c4nc5c([C@@H](C)Nc6ccc(Cl)nc6C(=O)NS(C)(=O)=O)cc(C)cc5c(=O)n4C)C[C@@H]32)nc1` [Compound 502, 6-chloro-3-(((R)-1-(3,6-dimethyl-2-((1R,5S,6R)-6-(5-methylpyrimidin-2-yl)-3-azabicyclo[3.1.0]hexan-3-yl)-4-oxo-3,4-dihydroquinazolin-8-yl)ethyl)amino)-N-(methylsulfonyl) picolinamide], the IC50 in test [1] (setting [3]) was in the range of 1000 to 5000 nM; in test [2] (setting [4]), 250 to 500 nM.

As for `Cc1cc([C@@H](C)Nc2ccc(Cl)nc2C(=O)NS(C)(=O)=O)c2nc(N3C[C@@H]4[C@H](C3)[C@H]4c3ccn(C4CC4)n3)n(C)c(=O)c2c1` [Compound 475, 6-chloro-3-(((R)-1-(2-((1R,5S,6R)-6-(1-cyclopropyl-1H-pyrazol-3-yl)-3-azabicyclo[3.1.0]hexan-3-yl)-3,6-dimethyl-4-oxo-3,4-dihydroquinazolin-8-yl)ethyl)amino)-N-(methylsulfonyl) picolinamide], the IC50 in test [1] (setting [3]) was in the range of 1000 to 5000 nM; in test [2] (setting [4]), 250 to 500 nM.
